Test results as given in ChEMBL document CHEMBL1201862, “PubChem BioAssay data set” (2004).
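Values below derive from 48-hour exposures of cells grown in 96-well plates, with endpoints linearly interpolated between the two concentrations bracketing the appropriate inhibition level. GI50 = concentration required for 50% inhibition of growth.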 Activity calls are given as the source filed them. Rule as the data show it: active = GI50 up to about 1.1 µM and inactive = higher.

What was measured:
Assay in all cases: NCI tumour cell line growth inhibition, 48 h
A498 = test system: A498
RPMI-8226 = test system: RPMI-8226
HT-29 = test system: HT-29
SK-MEL-28 = test system: SK-MEL-28
786-0 = test system: 786-0
K562 = test system: K562
HCT-15 = test system: HCT-15
SK-OV-3 = test system: SK-OV-3
SK-MEL-2 = test system: SK-MEL-2
KM-20L2 = test system: KM-20L2
UACC-62 = test system: UACC-62
OVCAR-4 = test system: OVCAR-4
HL-60 = test system: HL-60
HCT-116 = test system: HCT-116
EKVX = test system: EKVX
HOP-62 = test system: HOP-62
SW-620 = test system: SW-620
T47D = test system: T47D
MCF7 = test system: MCF7
MDA-MB-231 = test system: MDA-MB-231

SMILES | GI50 (A498) | GI50 (RPMI-8226) | GI50 (HT-29) | GI50 (SK-MEL-28) | GI50 (786-0) | GI50 (K562) | GI50 (HCT-15) [µM] | GI50 (SK-OV-3) | GI50 (SK-MEL-2) | GI50 (KM-20L2) | GI50 (UACC-62) | GI50 (OVCAR-4) | GI50 (HL-60) | GI50 (HCT-116) | GI50 (EKVX) | GI50 (HOP-62) | GI50 (SW-620) | GI50 (T47D) | GI50 (MCF7) | GI50 (MDA-MB-231)
O=C(O)[C@H](NS(=O)(=O)c1ccc2ccccc2c1)c1ccccc1 | > 100 µM (inactive) | > 100 µM (inactive) | > 100 µM (inactive) | > 100 µM (inactive) | > 100 µM (inactive) | > 100 µM (inactive) | > 100 | > 100 µM (inactive) | > 100 µM (inactive) | > 100 µM (inactive) | > 100 µM (inactive) | > 100 µM (inactive) | > 100 µM (inactive) | – | – | – | – | – | – | –
CC1=CC(=O)C(C)(C2=NC(C)(C)CO2)c2ccccc21 (stereo not drawn) | – | > 100 µM (inactive) | > 100 µM (inactive) | > 100 µM (inactive) | > 100 µM (inactive) | > 100 µM (inactive) | > 100 | > 100 µM (inactive) | > 100 µM (inactive) | > 100 µM (inactive) | > 100 µM (inactive) | > 100 µM (inactive) | > 100 µM (inactive) | > 100 µM (inactive) | > 100 µM (inactive) | > 100 µM (inactive) | > 100 µM (inactive) | – | – | –
O=S(=O)(O)c1cc(S(=O)(=O)O)c2c(/N=N/c3ccc(/N=N/c4ccccc4)cc3)c(O)ccc2c1 | 52.1 µM (inactive) | > 100 µM (inactive) | > 100 µM (inactive) | > 100 µM (inactive) | > 100 µM (inactive) | > 100 µM (inactive) | > 100 | > 100 µM (inactive) | > 100 µM (inactive) | – | > 100 µM (inactive) | > 100 µM (inactive) | > 100 µM (inactive) | > 100 µM (inactive) | > 100 µM (inactive) | > 100 µM (inactive) | > 100 µM (inactive) | > 100 µM (inactive) | > 100 µM (inactive) | > 100 µM (inactive)
O=C1c2ccccc2C(=O)c2c1ccc(C1C(=O)c3ccccc3C1=O)c2-c1c(C2C(=O)c3ccccc3C2=O)ccc2c1C(=O)c1ccccc1C2=O | > 100 µM (inactive) | 13.1 µM (inactive) | > 100 µM (inactive) | > 100 µM (inactive) | > 100 µM (inactive) | 36.6 µM (inactive) | > 100 | > 100 µM (inactive) | > 100 µM (inactive) | – | > 100 µM (inactive) | > 100 µM (inactive) | 7.89 µM (inactive) | > 100 µM (inactive) | > 100 µM (inactive) | > 100 µM (inactive) | 15.3 µM (inactive) | > 100 µM (inactive) | > 100 µM (inactive) | 47.3 µM (inactive)
CC1(C)N=C(/C=N/O)C(C)(C)N1O | > 100 µM (inactive) | > 100 µM (inactive) | > 100 µM (inactive) | > 100 µM (inactive) | > 100 µM (inactive) | > 100 µM (inactive) | > 100 | > 100 µM (inactive) | > 100 µM (inactive) | – | > 100 µM (inactive) | > 100 µM (inactive) | > 100 µM (inactive) | > 100 µM (inactive) | > 100 µM (inactive) | > 100 µM (inactive) | > 100 µM (inactive) | > 100 µM (inactive) | > 100 µM (inactive) | > 100 µM (inactive)
Cc1ccccc1NC(=O)C(=O)C(C#N)c1ccccc1C (stereo not drawn) | > 100 µM (inactive) | > 100 µM (inactive) | > 100 µM (inactive) | > 100 µM (inactive) | > 100 µM (inactive) | 21.9 µM (inactive) | > 100 | > 100 µM (inactive) | > 100 µM (inactive) | > 100 µM (inactive) | > 100 µM (inactive) | – | 53.3 µM (inactive) | > 100 µM (inactive) | > 100 µM (inactive) | > 100 µM (inactive) | 19.5 µM (inactive) | – | – | –
COC(=O)N/N=C(\c1nc2ccc(Cl)cc2nc1O)C(O)c1ccc([N+](=O)[O-])cc1 (stereo not drawn) | – | > 100 µM (inactive) | > 100 µM (inactive) | > 100 µM (inactive) | > 100 µM (inactive) | > 100 µM (inactive) | > 100 | > 100 µM (inactive) | – | > 100 µM (inactive) | > 100 µM (inactive) | > 100 µM (inactive) | > 100 µM (inactive) | > 100 µM (inactive) | – | > 100 µM (inactive) | > 100 µM (inactive) | – | – | –
Cn1cc(C(=O)C2CCCCC2)ccc1=O | – | > 100 µM (inactive) | > 100 µM (inactive) | > 100 µM (inactive) | > 100 µM (inactive) | > 100 µM (inactive) | > 100 | > 100 µM (inactive) | > 100 µM (inactive) | > 100 µM (inactive) | > 100 µM (inactive) | > 100 µM (inactive) | > 100 µM (inactive) | > 100 µM (inactive) | > 100 µM (inactive) | > 100 µM (inactive) | > 100 µM (inactive) | – | – | –
Cc1cn(CC(=S)NCCc2c[nH]c3ccccc23)c(=O)[nH]c1=O | 60.1 µM (inactive) | 46.5 µM (inactive) | 31.4 µM (inactive) | > 100 µM (inactive) | > 100 µM (inactive) | 39.1 µM (inactive) | > 100 | > 100 µM (inactive) | > 100 µM (inactive) | – | 70 µM (inactive) | 48.8 µM (inactive) | 56.8 µM (inactive) | 76.7 µM (inactive) | 17 µM (inactive) | > 100 µM (inactive) | > 100 µM (inactive) | 34.5 µM (inactive) | 63.7 µM (inactive) | > 100 µM (inactive)
O=C1c2ccccc2C2(c3ccc(Cl)cc3)NCc3ccccc3CN12 (stereo not drawn) | 19.4 µM (inactive) | 21.8 µM (inactive) | 15.2 µM (inactive) | 25.2 µM (inactive) | 13.6 µM (inactive) | 32.9 µM (inactive) | 21.9 | 31.2 µM (inactive) | 13.7 µM (inactive) | – | 17.3 µM (inactive) | 23.7 µM (inactive) | 14 µM (inactive) | 10.8 µM (inactive) | 20.6 µM (inactive) | 15.5 µM (inactive) | 37.2 µM (inactive) | 16.4 µM (inactive) | 17.4 µM (inactive) | 57.4 µM (inactive)
O=S1OC2(c3ccccc3-c3ccccc32)c2ccccc21 (stereo not drawn) | > 100 µM (inactive) | > 100 µM (inactive) | > 100 µM (inactive) | > 100 µM (inactive) | > 100 µM (inactive) | > 100 µM (inactive) | 86.3 | > 100 µM (inactive) | – | > 100 µM (inactive) | > 100 µM (inactive) | > 100 µM (inactive) | > 100 µM (inactive) | > 100 µM (inactive) | > 100 µM (inactive) | 40.6 µM (inactive) | > 100 µM (inactive) | – | – | –
N=C(N)NCC1CCCCCCN1 (stereo not drawn) | > 100 µM (inactive) | > 100 µM (inactive) | > 100 µM (inactive) | > 100 µM (inactive) | > 100 µM (inactive) | > 100 µM (inactive) | > 100 | > 100 µM (inactive) | > 100 µM (inactive) | – | > 100 µM (inactive) | > 100 µM (inactive) | > 100 µM (inactive) | > 100 µM (inactive) | > 100 µM (inactive) | > 100 µM (inactive) | > 100 µM (inactive) | > 100 µM (inactive) | > 100 µM (inactive) | > 100 µM (inactive)
COC(=O)c1oc([N+](=O)[O-])c(-c2ccccc2)c1-c1ccccc1 | > 100 µM (inactive) | > 100 µM (inactive) | 88.3 µM (inactive) | > 100 µM (inactive) | > 100 µM (inactive) | > 100 µM (inactive) | – | > 100 µM (inactive) | > 100 µM (inactive) | > 100 µM (inactive) | 67 µM (inactive) | > 100 µM (inactive) | – | > 100 µM (inactive) | > 100 µM (inactive) | > 100 µM (inactive) | > 100 µM (inactive) | – | – | –
N#Cc1c(N)c(C(=O)O)nn(-c2cccc(C(F)(F)F)c2)c1=O | 41 µM (inactive) | 88.9 µM (inactive) | > 100 µM (inactive) | > 100 µM (inactive) | > 100 µM (inactive) | 64.7 µM (inactive) | 95.1 | > 100 µM (inactive) | > 100 µM (inactive) | > 100 µM (inactive) | 76.9 µM (inactive) | – | > 100 µM (inactive) | > 100 µM (inactive) | 33.6 µM (inactive) | – | > 100 µM (inactive) | – | – | –
C[C@H]1[C@H](N2CCCC2)O[Si](C(C)(C)C)(C(C)(C)C)[C@@H]1C | > 100 µM (inactive) | > 100 µM (inactive) | > 100 µM (inactive) | > 100 µM (inactive) | > 100 µM (inactive) | 97.3 µM (inactive) | > 100 | > 100 µM (inactive) | > 100 µM (inactive) | – | > 100 µM (inactive) | > 100 µM (inactive) | 13.7 µM (inactive) | > 100 µM (inactive) | > 100 µM (inactive) | > 100 µM (inactive) | > 100 µM (inactive) | > 100 µM (inactive) | > 100 µM (inactive) | > 100 µM (inactive)
CCCC(CCC)C(=O)O [VALPROIC ACID] | 532 µM (inactive) | 4070 µM (inactive) | 3010 µM (inactive) | > 100 µM (inactive) | > 100 µM (inactive) | 6810 µM (inactive) | 8090 | > 100 µM (inactive) | 8000 µM (inactive) | – | 8810 µM (inactive) | 3720 µM (inactive) | 10300 µM (inactive) | 9730 µM (inactive) | > 100 µM (inactive) | > 100 µM (inactive) | 8530 µM (inactive) | 7520 µM (inactive) | 6580 µM (inactive) | 14700 µM (inactive)
